Assay results from PubChem BioAssay AID330 (DTP/NCI, 2004).
Several values for one entry are separate records, joined by “and”; a condition that tells them apart may be missing. Equal entries are not always repeated. Toxic doses and inconclusive results are not listed.

System: P388 leukemia ip, CD2F1 mice, survival T/C
Experiment: NCI In Vivo Anticancer Drug Screen. Data for tumor model P388 Leukemia (intraperitoneal) in CD2F1 (CDF1) mice
Details: endpoint: median survival time, higher = longer survival
Outline: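 Mice carrying the transplanted tumor received test compound or vehicle. Survival was recorded in each group, and the value is the treated-group measurement divided by that of the vehicle-treated control group.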

[1] = dose: 100.0 mg/kg/injection, schedule: Q04DX002 (ip), vehicle: saline with Tween-80
[2] = dose: 50.0 mg/kg/injection, schedule: Q01DX009 (ip), vehicle: Klucel (hydroxypropylcellulose) (HPC)
[3] = dose: 200.0 mg/kg/injection, schedule: Q01DX009 (ip), vehicle: Klucel (hydroxypropylcellulose) (HPC)
[4] = dose: 60.0 mg/kg/injection, schedule: Q01DX005 (ip), vehicle: saline with Tween-80
[5] = dose: 120.0 mg/kg/injection, schedule: Q01DX005 (ip), vehicle: saline with Tween-80
[6] = dose: 240.0 mg/kg/injection, schedule: Q01DX005 (ip), vehicle: saline with Tween-80
[7] = dose: 50.0 mg/kg/injection, schedule: Q01DX005 (ip), vehicle: saline with Tween-80
[8] = dose: 100.0 mg/kg/injection, schedule: Q01DX005 (ip), vehicle: saline with Tween-80
[9] = dose: 200.0 mg/kg/injection, schedule: Q01DX005 (ip), vehicle: saline with Tween-80
[10] = dose: 25.0 mg/kg/injection, schedule: Q04DX003 (ip), vehicle: saline with Tween-80
[11] = dose: 50.0 mg/kg/injection, schedule: Q04DX003 (ip), vehicle: saline with Tween-80
[12] = dose: 50.0 mg/kg/injection, schedule: Q01DX009 (ip), vehicle: saline with Tween-80

SMILES: COc1cc2c3c(c1O)-c1cc4c(cc1CC3N(C)CC2)OCO4 (stereo not drawn)
- T/C (dose: 10.0 mg/kg/injection, schedule: Q01DX009 (ip), vehicle: saline with Tween-80): 102 % of control
- T/C (dose: 20.0 mg/kg/injection, schedule: Q01DX009 (ip), vehicle: saline with Tween-80): 104 % of control
- T/C (dose: 40.0 mg/kg/injection, schedule: Q01DX009 (ip), vehicle: saline with Tween-80): 98 % of control
- T/C [1]: 97 % of control

SMILES: COc1cccc2ccc(-c3ccccc3)[s+]c12
- T/C (dose: 60.0 mg/kg/injection, schedule: Q01DX005 (ip), vehicle: Klucel (hydroxypropylcellulose) (HPC)): 97 % of control
- T/C (dose: 120.0 mg/kg/injection, schedule: Q01DX005 (ip), vehicle: Klucel (hydroxypropylcellulose) (HPC)): 98 % of control
- T/C (dose: 240.0 mg/kg/injection, schedule: Q01DX005 (ip), vehicle: Klucel (hydroxypropylcellulose) (HPC)): 104 % of control

SMILES: COc1cc(/C=N/NC(N)=O)cc(OC)c1O
- T/C [2]: 105 % of control
- T/C (dose: 100.0 mg/kg/injection, schedule: Q01DX009 (ip), vehicle: Klucel (hydroxypropylcellulose) (HPC)): 99 % of control
- T/C [3]: 98 % of control

SMILES: CC(=O)CC(=O)CCC(=O)Nc1cccc([N+](=O)[O-])c1
- T/C [4]: 106 % of control
- T/C [5]: 100 % of control
- T/C [6]: 105 % of control

SMILES: CC1=CC2OC3CC4OC(=O)/C=C/C=C/C(C(C)O)OCC(O)/C(C)=C/C(=O)OCC2(CC1O)C4(C)C31CO1 (stereo not drawn)
- T/C (dose: 1.25 mg/kg/injection, schedule: Q01DX005 (ip), vehicle: saline + alcohol): 163 % of control
- T/C (dose: 2.5 mg/kg/injection, schedule: Q01DX005 (ip), vehicle: saline + alcohol): 156 % of control and 224 % of control
- T/C (dose: 5.0 mg/kg/injection, schedule: Q01DX005 (ip), vehicle: saline + alcohol): 198 % of control and 243 % of control

SMILES: N#CC(/C=C/c1ccccc1)(NO)Nc1cccc(Cl)c1 (stereo not drawn)
- T/C [4]: 116 % of control
- T/C [5]: 114 % of control

SMILES: O=C(NCCN1CCC(n2c(=O)[nH]c3cc(Cl)ccc32)CC1)c1ccc(F)cc1
- T/C [7]: 95 % of control
- T/C [8]: 88 % of control
- T/C [9]: 90 % of control

SMILES: CN1C(=O)C(=CN(C)c2ccccc2)C(=O)N(C)C1=O
- T/C [10]: 111 % of control
- T/C [11]: 112 % of control
- T/C (dose: 100.0 mg/kg/injection, schedule: Q04DX003 (ip), vehicle: saline with Tween-80): 114 % of control and 96 % of control

SMILES: COc1cccc2c1C(=O)c1c(O)c3c(c(O)c1C2=O)CC(O)(C(C)=O)CC3OC1CC(NCC2(O)OC(C(=O)NCCCN(C)C)C(O)C2O)C(O)C(C)O1 (stereo not drawn)
- T/C (dose: 2.5 mg/kg/injection, schedule: Q04DX003 (ip), vehicle: water): 101 % of control
- T/C (dose: 5.0 mg/kg/injection, schedule: Q04DX003 (ip), vehicle: water): 109 % of control
- T/C (dose: 10.0 mg/kg/injection, schedule: Q04DX003 (ip), vehicle: water): 108 % of control
- T/C (dose: 20.0 mg/kg/injection, schedule: Q04DX003 (ip), vehicle: water): 109 % of control
- T/C (dose: 40.0 mg/kg/injection, schedule: Q04DX003 (ip), vehicle: water): 109 % of control

SMILES: OC(COc1c2ccccc2nc2ccccc12)CN1CCN(c2cccc(Cl)c2)CC1 (stereo not drawn)
- T/C [7]: 90 % of control
- T/C [8]: 88 % of control
- T/C [9]: 90 % of control

SMILES: CCOC(=O)C12C=CC(=O)NC1(OC)OC(C)(C)C2 (stereo not drawn)
- T/C (dose: 20.0 mg/kg/injection, schedule: Q01DX001 (ip), vehicle: Klucel (hydroxypropylcellulose) (HPC)): 95 % of control
- T/C (dose: 40.0 mg/kg/injection, schedule: Q01DX001 (ip), vehicle: Klucel (hydroxypropylcellulose) (HPC)): 93 % of control
- T/C (dose: 80.0 mg/kg/injection, schedule: Q01DX001 (ip), vehicle: Klucel (hydroxypropylcellulose) (HPC)): 89 % of control

SMILES: C1=[N+]2CCCC2Cc2ccc3ccccc3c21 (stereo not drawn)
- T/C (dose: 12.5 mg/kg/injection, schedule: Q04DX003 (ip), vehicle: saline): 100 % of control
- T/C (dose: 25.0 mg/kg/injection, schedule: Q04DX003 (ip), vehicle: saline): 103 % of control
- T/C (dose: 50.0 mg/kg/injection, schedule: Q04DX003 (ip), vehicle: saline): 100 % of control

SMILES: O=C(c1c(F)c(F)c(F)c(F)c1F)n1ccnc1
- T/C (dose: 60.0 mg/kg/injection, schedule: Q01DX005 (ip), vehicle: saline): 104 % of control
- T/C (dose: 120.0 mg/kg/injection, schedule: Q01DX005 (ip), vehicle: saline): 101 % of control
- T/C (dose: 240.0 mg/kg/injection, schedule: Q01DX005 (ip), vehicle: saline): 87 % of control

SMILES: CS(=O)(=O)c1nc2ccc(N3C(=O)c4ccccc4C3=O)cc2s1
- T/C (dose: 12.5 mg/kg/injection, schedule: Q01DX009 (ip), vehicle: Klucel (hydroxypropylcellulose) (HPC)): 108 % of control
- T/C (dose: 25.0 mg/kg/injection, schedule: Q01DX009 (ip), vehicle: Klucel (hydroxypropylcellulose) (HPC)): 107 % of control
- T/C [2]: 110 % of control and 89 % of control
- T/C [3]: 105 % of control

SMILES: O=NN(CCCl)C(=O)NC1CC2CCC1C2 (stereo not drawn)
- T/C (dose: 12.5 mg/kg/injection, schedule: Q01DX009 (ip), vehicle: saline with Tween-80): 195 % of control
- T/C (dose: 25.0 mg/kg/injection, schedule: Q01DX009 (ip), vehicle: saline with Tween-80): 250 % of control
- T/C [10]: 225 % of control
- T/C (dose: 33.0 mg/kg/injection, schedule: Q04DX003 (ip), vehicle: saline with Tween-80): 213 % of control
- T/C [12]: 109 % of control
- T/C [11]: 204 % of control and 295 % of control
- T/C (dose: 75.0 mg/kg/injection, schedule: Q04DX003 (ip), vehicle: saline with Tween-80): 90 % of control

SMILES: C/C=C/Cc1n[nH]c(=O)c2c(C)[nH]nc12
- T/C (dose: 25.0 mg/kg/injection, schedule: Q04DX002 (ip), vehicle: Klucel (hydroxypropylcellulose) (HPC)): 105 % of control
- T/C (dose: 50.0 mg/kg/injection, schedule: Q04DX002 (ip), vehicle: Klucel (hydroxypropylcellulose) (HPC)): 103 % of control
- T/C (dose: 100.0 mg/kg/injection, schedule: Q04DX002 (ip), vehicle: Klucel (hydroxypropylcellulose) (HPC)): 104 % of control and 90 % of control

SMILES: C/C(=N\N(C)C)C1=C(O)C(C(C)C)NC1=O (stereo not drawn)
- T/C [4]: 100 % of control
- T/C [5]: 105 % of control
- T/C [6]: 98 % of control

SMILES: COC(=O)CC(=O)c1ccc(OCCOc2ccc(C(C)(C)CC(C)(C)C)cc2)c([N+](=O)[O-])c1
- T/C (dose: 50.0 mg/kg/injection, schedule: Q04DX003 (ip), vehicle: saline sonified): 100 % of control
- T/C (dose: 100.0 mg/kg/injection, schedule: Q04DX003 (ip), vehicle: saline sonified): 100 % of control
- T/C (dose: 200.0 mg/kg/injection, schedule: Q04DX003 (ip), vehicle: saline sonified): 104 % of control

SMILES: NC(=O)N=Nc1ccc(Br)cc1
- T/C [7]: 102 % of control
- T/C [8]: 102 % of control
- T/C [9]: 93 % of control

SMILES: COc1cc2c(cc1OC)C(=O)Cc1ccc(OC)c(O)c1CN(C)CC2
- T/C (dose: 2.25 mg/kg/injection, schedule: Q01DX009 (ip), vehicle: Klucel (hydroxypropylcellulose) (HPC)): 111 % of control
- T/C (dose: 4.5 mg/kg/injection, schedule: Q01DX009 (ip), vehicle: Klucel (hydroxypropylcellulose) (HPC)): 108 % of control
- T/C (dose: 9.0 mg/kg/injection, schedule: Q01DX009 (ip), vehicle: Klucel (hydroxypropylcellulose) (HPC)): 118 % of control
- T/C (dose: 18.0 mg/kg/injection, schedule: Q01DX009 (ip), vehicle: Klucel (hydroxypropylcellulose) (HPC)): 108 % of control

SMILES: NC(=O)c1[nH]cnc1O
- T/C (dose: 12.5 mg/kg/injection, schedule: Q01DX005 (ip), vehicle: saline with Tween-80): 114 % of control
- T/C (dose: 25.0 mg/kg/injection, schedule: Q01DX005 (ip), vehicle: saline with Tween-80): 107 % of control
- T/C [7]: 108 % of control and 123 % of control
- T/C [8]: 114 % of control and 123 % of control
- T/C [1]: 100 % of control
- T/C [9]: 123 % of control
- T/C (dose: 200.0 mg/kg/injection, schedule: Q04DX002 (ip), vehicle: saline with Tween-80): 110 % of control

SMILES: C(=NCCSSCCN=Cc1ccccc1)c1ccccc1
- T/C [4]: 93 % of control
- T/C [5]: 93 % of control
- T/C [6]: 103 % of control

SMILES: c1ccc(N2OCC3c4ccccc4-c4ccccc4C32)cc1 (stereo not drawn)
- T/C (dose: 50.0 mg/kg/injection, schedule: Q04DX002 (ip), vehicle: suspension in saline): 100 % of control
- T/C (dose: 100.0 mg/kg/injection, schedule: Q04DX002 (ip), vehicle: suspension in saline): 104 % of control
- T/C (dose: 200.0 mg/kg/injection, schedule: Q04DX002 (ip), vehicle: suspension in saline): 97 % of control

SMILES: CC(C)(C)N(C/C=C/CN(Cc1ccccc1)Cc1ccccc1)C(C)(C)C
- T/C [12]: 87 % of control
- T/C (dose: 100.0 mg/kg/injection, schedule: Q01DX009 (ip), vehicle: saline with Tween-80): 95 % of control
